Activity calls are given as the source filed them.
Legend:
[1] = target: T1, Voltage-gated N-type calcium channel alpha-1B subunit/Amyloid beta A4 precursor protein-binding family A member 1 (Homo sapiens, UniProt Q00975+Q02410); format: protein assay
[2] = target: T1, Voltage-gated N-type calcium channel alpha-1B subunit/Amyloid beta A4 precursor protein-binding family A member 1; format: protein assay; remark: listed apart in the source
Coagulation factor XII = target: T2, Coagulation factor XII (Homo sapiens, UniProt P00748); format: functional;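 also: activated factor XIIa alpha cleaving a fluorogenic AMC peptide substrate; inhibitor potency from loss of enzyme activity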
T2 sequence (P00748 whole entry): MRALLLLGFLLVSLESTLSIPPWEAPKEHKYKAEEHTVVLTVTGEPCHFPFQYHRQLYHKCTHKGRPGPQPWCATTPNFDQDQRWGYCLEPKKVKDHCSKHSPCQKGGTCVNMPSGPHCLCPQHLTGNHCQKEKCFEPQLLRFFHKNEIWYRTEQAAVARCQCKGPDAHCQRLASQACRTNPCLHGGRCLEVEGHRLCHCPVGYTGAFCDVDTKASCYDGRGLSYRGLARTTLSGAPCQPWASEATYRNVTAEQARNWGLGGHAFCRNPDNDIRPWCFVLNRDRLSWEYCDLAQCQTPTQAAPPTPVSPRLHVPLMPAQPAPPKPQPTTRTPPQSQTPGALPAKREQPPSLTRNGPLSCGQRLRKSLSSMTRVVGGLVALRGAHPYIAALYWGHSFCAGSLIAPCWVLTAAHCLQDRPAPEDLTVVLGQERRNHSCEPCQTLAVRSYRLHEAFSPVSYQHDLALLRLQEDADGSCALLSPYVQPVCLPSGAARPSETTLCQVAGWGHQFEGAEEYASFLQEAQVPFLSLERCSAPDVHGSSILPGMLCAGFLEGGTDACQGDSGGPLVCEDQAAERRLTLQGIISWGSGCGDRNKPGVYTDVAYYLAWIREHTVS

Leucine aminopeptidase = target: T3, Leucine aminopeptidase (Plasmodium falciparum 3D7, UniProt Q8IL11); assay: P. falciparum M17LAP inhibitors, primary screen, biochemical, fluorogenic H-Leu-NHMec substrate, 1536-well (AID 1619); format: functional
T3 sequence (Q8IL11 whole entry): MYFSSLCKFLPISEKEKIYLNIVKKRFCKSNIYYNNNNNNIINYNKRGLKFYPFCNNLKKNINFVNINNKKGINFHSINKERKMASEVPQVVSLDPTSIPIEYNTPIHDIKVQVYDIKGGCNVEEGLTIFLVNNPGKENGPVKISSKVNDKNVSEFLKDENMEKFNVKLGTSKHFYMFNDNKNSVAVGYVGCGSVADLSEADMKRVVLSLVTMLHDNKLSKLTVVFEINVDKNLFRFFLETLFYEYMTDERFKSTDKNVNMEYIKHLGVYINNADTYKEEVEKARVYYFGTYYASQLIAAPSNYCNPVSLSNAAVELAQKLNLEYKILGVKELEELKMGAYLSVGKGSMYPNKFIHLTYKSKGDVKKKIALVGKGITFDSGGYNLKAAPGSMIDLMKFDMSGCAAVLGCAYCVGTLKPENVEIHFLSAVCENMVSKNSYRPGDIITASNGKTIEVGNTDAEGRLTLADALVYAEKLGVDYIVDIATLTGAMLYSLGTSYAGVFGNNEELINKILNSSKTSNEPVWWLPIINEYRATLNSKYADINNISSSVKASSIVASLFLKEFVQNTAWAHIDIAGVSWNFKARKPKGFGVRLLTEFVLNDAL

[3] = target: T4, Replicative DNA helicase DnaB (Mycobacterium tuberculosis, UniProt P9WMR3); assay: DnaB intein splicing inhibitors, dose response, biochemical, cell-free fluorescence (AID 449749); format: functional
T4 sequence (P9WMR3 whole entry): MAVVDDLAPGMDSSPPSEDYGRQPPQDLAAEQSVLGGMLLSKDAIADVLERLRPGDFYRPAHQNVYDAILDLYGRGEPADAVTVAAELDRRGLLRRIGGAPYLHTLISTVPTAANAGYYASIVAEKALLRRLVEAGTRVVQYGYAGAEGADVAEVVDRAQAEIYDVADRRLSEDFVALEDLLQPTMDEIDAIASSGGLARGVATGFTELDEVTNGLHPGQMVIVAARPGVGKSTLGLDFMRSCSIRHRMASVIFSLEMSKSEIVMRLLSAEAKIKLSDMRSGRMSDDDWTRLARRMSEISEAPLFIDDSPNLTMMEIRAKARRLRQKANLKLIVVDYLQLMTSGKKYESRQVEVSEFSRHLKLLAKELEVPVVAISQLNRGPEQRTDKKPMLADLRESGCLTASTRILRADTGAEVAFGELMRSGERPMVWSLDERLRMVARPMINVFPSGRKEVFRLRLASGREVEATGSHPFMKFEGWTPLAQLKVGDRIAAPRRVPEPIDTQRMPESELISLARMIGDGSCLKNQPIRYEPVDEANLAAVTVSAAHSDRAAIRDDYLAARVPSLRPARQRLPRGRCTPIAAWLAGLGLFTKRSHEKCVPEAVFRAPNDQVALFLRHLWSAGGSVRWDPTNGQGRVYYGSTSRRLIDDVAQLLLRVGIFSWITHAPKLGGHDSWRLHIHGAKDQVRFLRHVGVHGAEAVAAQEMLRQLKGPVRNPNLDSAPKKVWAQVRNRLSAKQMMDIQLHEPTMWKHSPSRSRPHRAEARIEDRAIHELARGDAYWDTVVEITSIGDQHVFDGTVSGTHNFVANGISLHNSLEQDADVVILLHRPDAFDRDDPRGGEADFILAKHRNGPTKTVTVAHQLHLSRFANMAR

Protein RecA = target: T5, Protein RecA (Mycobacterium tuberculosis, UniProt P9WHJ3); assay: Fluorescence Cell-Free Homogeneous Dose Retest to Identify Inhibitors of RecA-Intein Splicing Activity. [Related pubchem assays (depositor defined):AID2097, AID2223, AID489010, AID492950]; format: functional
T5 sequence (P9WHJ3 whole entry): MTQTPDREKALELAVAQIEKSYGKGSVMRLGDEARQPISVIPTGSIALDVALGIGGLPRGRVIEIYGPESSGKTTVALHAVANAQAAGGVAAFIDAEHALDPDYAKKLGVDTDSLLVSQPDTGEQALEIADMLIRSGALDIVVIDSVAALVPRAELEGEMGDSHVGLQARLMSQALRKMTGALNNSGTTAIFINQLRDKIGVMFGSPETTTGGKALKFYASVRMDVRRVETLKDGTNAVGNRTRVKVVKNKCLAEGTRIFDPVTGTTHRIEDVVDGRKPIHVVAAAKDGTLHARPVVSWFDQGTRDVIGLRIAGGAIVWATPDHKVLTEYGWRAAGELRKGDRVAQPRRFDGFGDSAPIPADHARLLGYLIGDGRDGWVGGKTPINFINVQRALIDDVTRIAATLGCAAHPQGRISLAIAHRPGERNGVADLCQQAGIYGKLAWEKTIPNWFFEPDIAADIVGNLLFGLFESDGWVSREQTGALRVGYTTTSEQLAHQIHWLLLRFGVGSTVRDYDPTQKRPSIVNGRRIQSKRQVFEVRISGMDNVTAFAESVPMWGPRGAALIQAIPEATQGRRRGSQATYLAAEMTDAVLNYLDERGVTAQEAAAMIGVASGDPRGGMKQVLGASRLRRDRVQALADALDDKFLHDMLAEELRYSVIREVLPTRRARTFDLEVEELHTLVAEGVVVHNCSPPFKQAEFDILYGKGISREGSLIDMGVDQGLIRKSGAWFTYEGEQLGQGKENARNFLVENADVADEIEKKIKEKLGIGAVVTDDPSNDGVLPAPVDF

[4] = A Cell Based Secondary Assay To Explore Cytotoxicity of Compounds that Sensitize Mycobacterium Tuberculosis to Beta-Lactam Antibiotics.; format: functional
Cytochrome P450 2C9 = Cytochrome P450 2C9 (Homo sapiens, UniProt P11712)
Cytochrome P450 2D6 = Cytochrome P450 2D6 (Homo sapiens, UniProt P10635);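 also: CYP2D6 member of a cytochrome P450 panel assay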
Cytochrome P450 3A4 = Cytochrome P450 3A4 (Homo sapiens, UniProt P08684);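 also: CYP3A4 tested as one member of a cytochrome P450 panel screen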
Cytochrome P450 1A2 = target: T6, Cytochrome P450 1A2 (Homo sapiens, UniProt P05177);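 also: PubChem cytochrome P450 panel assay, CYP1A2 panel member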
T6 sequence (P05177 whole entry): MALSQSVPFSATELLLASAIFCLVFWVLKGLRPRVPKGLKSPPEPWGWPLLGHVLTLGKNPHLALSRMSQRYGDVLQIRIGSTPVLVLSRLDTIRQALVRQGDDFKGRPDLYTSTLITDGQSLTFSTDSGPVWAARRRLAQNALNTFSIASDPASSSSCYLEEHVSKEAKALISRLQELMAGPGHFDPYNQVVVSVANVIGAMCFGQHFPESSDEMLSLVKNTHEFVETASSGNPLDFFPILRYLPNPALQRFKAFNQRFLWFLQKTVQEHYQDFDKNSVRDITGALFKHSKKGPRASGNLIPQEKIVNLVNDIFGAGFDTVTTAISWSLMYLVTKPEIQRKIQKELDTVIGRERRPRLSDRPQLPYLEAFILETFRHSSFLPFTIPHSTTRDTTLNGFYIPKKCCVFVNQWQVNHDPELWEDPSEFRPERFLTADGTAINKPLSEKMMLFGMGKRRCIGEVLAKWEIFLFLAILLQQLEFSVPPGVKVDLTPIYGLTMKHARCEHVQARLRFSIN

[5] = target: Voltage-dependent T-type calcium channel subunit alpha-1H (Homo sapiens, UniProt O95180); format: functional;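 also: channel activity triggered by adding a high calcium stimulation buffer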
H9c2 = assay: cells; format: functional, cell-based; conditions: Rattus norvegicus, H9c2, Myocardium

T1 sequence (Q00975 whole entry): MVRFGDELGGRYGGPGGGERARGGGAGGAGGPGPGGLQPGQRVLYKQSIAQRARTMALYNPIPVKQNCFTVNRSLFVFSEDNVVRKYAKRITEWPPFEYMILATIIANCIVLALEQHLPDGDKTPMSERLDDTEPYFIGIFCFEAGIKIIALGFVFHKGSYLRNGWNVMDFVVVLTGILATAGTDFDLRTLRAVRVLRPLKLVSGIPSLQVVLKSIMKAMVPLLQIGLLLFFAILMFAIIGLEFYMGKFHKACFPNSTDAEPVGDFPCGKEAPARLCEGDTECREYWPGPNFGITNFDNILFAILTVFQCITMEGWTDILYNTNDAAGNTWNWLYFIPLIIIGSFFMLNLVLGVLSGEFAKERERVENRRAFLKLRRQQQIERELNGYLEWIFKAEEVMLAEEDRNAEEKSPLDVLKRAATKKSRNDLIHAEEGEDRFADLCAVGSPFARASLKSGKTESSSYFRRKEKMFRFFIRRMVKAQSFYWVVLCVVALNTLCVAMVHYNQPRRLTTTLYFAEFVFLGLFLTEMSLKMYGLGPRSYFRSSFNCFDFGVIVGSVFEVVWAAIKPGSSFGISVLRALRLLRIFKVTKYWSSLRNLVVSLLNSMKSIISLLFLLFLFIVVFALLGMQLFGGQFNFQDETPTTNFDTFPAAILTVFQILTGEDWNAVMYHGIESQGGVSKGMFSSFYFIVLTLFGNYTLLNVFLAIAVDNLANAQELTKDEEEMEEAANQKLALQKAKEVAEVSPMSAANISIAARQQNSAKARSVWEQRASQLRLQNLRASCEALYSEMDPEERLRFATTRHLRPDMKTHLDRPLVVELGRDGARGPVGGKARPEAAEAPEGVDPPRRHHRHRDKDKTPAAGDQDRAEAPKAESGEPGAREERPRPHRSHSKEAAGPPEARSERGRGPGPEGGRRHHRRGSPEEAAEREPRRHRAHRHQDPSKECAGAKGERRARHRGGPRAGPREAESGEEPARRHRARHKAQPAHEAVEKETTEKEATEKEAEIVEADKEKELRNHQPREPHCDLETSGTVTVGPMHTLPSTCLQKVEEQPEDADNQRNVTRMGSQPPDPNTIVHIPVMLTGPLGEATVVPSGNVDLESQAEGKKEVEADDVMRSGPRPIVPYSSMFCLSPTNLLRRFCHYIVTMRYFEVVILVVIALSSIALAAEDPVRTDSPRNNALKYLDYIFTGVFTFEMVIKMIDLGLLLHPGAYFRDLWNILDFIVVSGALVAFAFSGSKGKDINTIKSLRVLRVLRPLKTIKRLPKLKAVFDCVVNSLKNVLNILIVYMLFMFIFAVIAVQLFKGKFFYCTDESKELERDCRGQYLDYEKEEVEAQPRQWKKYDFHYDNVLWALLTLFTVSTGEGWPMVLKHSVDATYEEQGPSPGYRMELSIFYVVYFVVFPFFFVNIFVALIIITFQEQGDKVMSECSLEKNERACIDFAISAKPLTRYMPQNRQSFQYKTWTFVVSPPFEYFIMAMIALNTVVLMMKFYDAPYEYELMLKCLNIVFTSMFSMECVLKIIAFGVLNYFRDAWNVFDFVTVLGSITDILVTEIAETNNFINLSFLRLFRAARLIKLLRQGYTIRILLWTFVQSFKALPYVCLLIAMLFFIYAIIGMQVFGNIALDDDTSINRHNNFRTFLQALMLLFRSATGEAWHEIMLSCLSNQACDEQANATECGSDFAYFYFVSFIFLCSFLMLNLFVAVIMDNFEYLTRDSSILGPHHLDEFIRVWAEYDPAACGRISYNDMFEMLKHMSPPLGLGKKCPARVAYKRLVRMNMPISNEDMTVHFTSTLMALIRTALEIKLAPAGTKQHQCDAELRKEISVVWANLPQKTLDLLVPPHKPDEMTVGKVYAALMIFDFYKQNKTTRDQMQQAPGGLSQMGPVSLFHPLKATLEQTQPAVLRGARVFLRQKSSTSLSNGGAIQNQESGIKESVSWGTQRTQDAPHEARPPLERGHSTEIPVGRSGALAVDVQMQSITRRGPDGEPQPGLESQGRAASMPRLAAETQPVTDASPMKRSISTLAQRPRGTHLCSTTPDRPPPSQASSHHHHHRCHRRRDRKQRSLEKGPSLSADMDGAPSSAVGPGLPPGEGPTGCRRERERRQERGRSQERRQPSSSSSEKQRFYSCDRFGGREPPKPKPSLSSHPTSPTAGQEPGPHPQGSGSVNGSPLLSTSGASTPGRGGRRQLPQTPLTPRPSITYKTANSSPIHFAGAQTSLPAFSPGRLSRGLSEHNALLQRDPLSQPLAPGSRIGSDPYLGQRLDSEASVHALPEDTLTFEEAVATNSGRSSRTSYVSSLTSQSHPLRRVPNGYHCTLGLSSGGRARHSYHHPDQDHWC
T1 sequence (Q02410 whole entry): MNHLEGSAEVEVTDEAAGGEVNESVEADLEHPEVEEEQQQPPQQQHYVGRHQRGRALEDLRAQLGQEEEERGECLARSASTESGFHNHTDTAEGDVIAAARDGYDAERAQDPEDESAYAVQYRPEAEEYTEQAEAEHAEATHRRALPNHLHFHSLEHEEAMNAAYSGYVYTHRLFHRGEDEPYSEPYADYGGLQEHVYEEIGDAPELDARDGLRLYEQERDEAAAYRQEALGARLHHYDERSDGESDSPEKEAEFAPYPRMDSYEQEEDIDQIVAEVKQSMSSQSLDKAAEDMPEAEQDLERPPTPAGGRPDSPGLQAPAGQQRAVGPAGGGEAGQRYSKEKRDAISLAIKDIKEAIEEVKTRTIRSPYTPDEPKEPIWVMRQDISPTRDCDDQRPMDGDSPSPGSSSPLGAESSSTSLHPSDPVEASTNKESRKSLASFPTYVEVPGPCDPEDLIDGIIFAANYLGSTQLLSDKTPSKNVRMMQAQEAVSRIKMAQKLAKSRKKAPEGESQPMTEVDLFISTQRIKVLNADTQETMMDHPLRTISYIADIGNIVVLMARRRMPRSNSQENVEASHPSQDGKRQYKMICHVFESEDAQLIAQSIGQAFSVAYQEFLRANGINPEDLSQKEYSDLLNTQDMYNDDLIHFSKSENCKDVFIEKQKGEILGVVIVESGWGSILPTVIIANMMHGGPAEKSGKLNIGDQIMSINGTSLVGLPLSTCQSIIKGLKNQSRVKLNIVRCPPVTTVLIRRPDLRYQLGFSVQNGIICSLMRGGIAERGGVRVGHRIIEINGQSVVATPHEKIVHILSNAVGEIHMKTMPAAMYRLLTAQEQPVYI
Sequence of Cytochrome P450 3A4 (P08684 whole entry): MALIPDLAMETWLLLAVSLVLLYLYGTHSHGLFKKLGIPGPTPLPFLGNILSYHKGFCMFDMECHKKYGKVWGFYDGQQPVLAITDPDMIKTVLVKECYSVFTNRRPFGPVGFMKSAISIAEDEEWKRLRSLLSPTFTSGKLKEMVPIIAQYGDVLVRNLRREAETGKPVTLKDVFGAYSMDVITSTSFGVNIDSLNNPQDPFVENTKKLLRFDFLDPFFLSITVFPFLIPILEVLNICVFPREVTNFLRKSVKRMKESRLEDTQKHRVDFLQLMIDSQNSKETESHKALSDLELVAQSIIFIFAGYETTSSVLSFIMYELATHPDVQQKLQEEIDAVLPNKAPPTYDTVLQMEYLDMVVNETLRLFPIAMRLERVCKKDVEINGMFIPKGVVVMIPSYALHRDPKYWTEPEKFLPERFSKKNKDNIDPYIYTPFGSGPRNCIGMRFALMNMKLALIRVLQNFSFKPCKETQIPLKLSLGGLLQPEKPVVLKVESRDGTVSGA
Sequence of Cytochrome P450 2C9 (P11712 whole entry): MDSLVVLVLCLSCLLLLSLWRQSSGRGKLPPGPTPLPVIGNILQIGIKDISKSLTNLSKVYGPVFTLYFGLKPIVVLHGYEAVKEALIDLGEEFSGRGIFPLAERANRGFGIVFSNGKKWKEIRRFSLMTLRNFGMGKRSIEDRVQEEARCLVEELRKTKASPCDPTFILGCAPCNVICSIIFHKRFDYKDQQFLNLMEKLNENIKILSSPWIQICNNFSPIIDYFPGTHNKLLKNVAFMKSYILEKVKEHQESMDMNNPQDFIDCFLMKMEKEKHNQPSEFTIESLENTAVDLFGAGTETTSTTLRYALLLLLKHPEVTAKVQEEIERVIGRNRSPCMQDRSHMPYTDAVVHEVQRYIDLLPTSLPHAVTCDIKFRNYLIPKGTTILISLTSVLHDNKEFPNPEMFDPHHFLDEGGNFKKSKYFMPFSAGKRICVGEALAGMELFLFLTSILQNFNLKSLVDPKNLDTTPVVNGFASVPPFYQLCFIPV
Sequence of Cytochrome P450 2D6 (P10635 whole entry): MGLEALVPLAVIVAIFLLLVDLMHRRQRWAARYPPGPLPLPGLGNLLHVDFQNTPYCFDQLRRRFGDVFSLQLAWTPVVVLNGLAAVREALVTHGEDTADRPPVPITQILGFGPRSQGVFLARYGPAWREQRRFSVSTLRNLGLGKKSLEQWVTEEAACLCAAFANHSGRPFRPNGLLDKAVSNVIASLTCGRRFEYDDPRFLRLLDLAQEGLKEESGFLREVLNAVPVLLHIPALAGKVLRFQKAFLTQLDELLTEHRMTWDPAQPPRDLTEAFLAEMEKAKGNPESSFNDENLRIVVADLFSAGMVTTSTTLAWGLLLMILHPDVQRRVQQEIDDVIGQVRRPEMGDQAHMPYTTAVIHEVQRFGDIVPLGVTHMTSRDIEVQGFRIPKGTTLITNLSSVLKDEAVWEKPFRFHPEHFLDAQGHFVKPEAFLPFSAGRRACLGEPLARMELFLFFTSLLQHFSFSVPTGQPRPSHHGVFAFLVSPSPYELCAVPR

## O=C1NC(=O)N(Cc2ccccc2)C(=O)/C1=C/c1cnn(-c2ccccc2)c1
[1]
  IC50: > 50 µM (inactive)
[2]
  IC50: 14.9 µM (active)

## O=C(NCc1ccco1)c1scc2c1OCCO2
Coagulation factor XII
  IC50: > 50 µM (inactive)

## COc1ccc(CC(CC(=O)O)C(=O)Nc2ccccc2)cc1 (centres undefined)
Leucine aminopeptidase
  IC50: 47.2 µM (active)

## CCCCCCCN(C(=O)CCl)c1ccccc1C
[3]
  AC50: 7.86 µM (active)
Protein RecA
  EC50: 0.893 µM (active)
[4]
  CC50: 2.82 µM (active)

## O=C(c1ccccc1)C1CN(c2ccccc2)CC1c1ccc(Cl)cc1 (centres undefined)
Cytochrome P450 2C9
  AC50: 5.01 µM (inconclusive)
Cytochrome P450 2D6
  AC50: 3.16 µM (inconclusive)
Cytochrome P450 3A4
  AC50: 8.91 µM (inconclusive)
Coagulation factor XII
  IC50: > 50 µM (inactive)
Cytochrome P450 1A2
  AC50: 3.55 µM (inconclusive)

## COc1ccc(NC(=O)c2ccco2)cc1NC(=O)c1cccc(OC(C)C)c1
[5]
  EC50: 8.24 µM (active)

## CCOC(=O)[C@H]1[C@H]2COc3ccc(Br)cc3[C@@H]2N2C(=O)c3cc(OC)c(OC)cc3NC(=O)[C@@]12C
[4]
  CC50: > 40 µM (active)
H9c2
  IC50: 15.5 µM (active)

## CCCCCOC(=O)Nc1nnc(CCCCC)s1
Coagulation factor XII
  IC50: > 50 µM (inactive)

## Cc1ccc(S(=O)(=O)Nc2nc3c(s2)C(=O)CC(C)(C)C3)cc1
Leucine aminopeptidase
  IC50: 94.4 µM (active)

## Fc1ccc(SCCc2ccccn2)cc1
Coagulation factor XII
  IC50: > 50 µM (inactive)

## CCc1cccc(NC(=O)C[S+]([O-])Cc2nc(-c3ccc(C)cc3)oc2C)c1 (centres undefined)
[5]
  EC50: 3.17 µM (active)

Reference: ChEMBL document CHEMBL1201862, “PubChem BioAssay data set” (2004)
